{"source": "patent US7250304B2", "about": "“Functional assay of high-density lipoprotein” (The Regents of the University of California, priority 2000, dated 2007)", "key": {"[1]": {"test_system": "human artery wall cell cocultures", "test": "Monocyte chemotaxis assay on coculture conditioned medium", "type": "cell-based", "experimental": "(§1) The wells of the microtiter plates were treated with 0.1% gelatin at 37° C. overnight. HASMC were added at a confluent density of 1×10^5 cells/cm^2. Cells were cultured for 2 d at which time they had covered the entire surface of the well and had produced a substantial amount of extracellular matrix. HAEC were subsequently added at 2×10^5 cells/cm^2 and were allowed to grow forming a complete monolayer of confluent HAEC in 2 d. In all experiments, HAEC and autologous HASMC (from the same donor) were used at passage levels of four to six.\nMonocytes were isolated using a modification of the Recalde method as previously described (Fogelman et al. (1988) J. Lipid Res. 29: 1243-1247) from the blood of normal volunteers after obtaining written consent under a protocol approved by the human research subject protection committee of the University of California, Los Angeles.\n(§2) In general, the cocultures were treated with native LDL (250 μg/ml) in the absence or presence of HDL for 8 h. The supernatants were collected and used for determination of lipid hydroperoxide levels. The cocultures were subsequently washed and fresh culture medium 199 (M199) without any additions was added and incubated for an additional 8 hrs. This allowed the collection of monocyte chemotactic activity released by the cells as a result of stimulation by the oxidized LDL. At the end of incubation, the supernatants were collected from cocultures, diluted 40-fold, and assayed for monocyte chemotactic activity. Briefly, the supernatant was added to a standard Neuroprobe chamber (NeuroProbe, Cabin John, Md.), with monocytes added to the top. The chamber was incubated for 60 min at 37° C. After the incubation, the chamber was disassembled and the nonmigrated monocytes were wiped off. The membrane was then air dried and fixed with 1% glutaraldehyde and stained with 0.1% Crystal Violet dye. The number of migrated monocytes was determined microscopically and expressed as the mean±SD of 12 standardized high power fields counted in quadruple wells."}, "[2]": {"test_system": "human artery wall cell cocultures", "test": "LDL oxidation by human artery wall cell cocultures (lipid hydroperoxides)", "type": "cell-based", "experimental": "as §1, §2\nStatistical significance was determined by model 1 ANOVA. […] Significance is defined as p<0.05.\nHuman artery wall cocultures were preincubated with ETYA at a concentration of 10^−8 mol/L or with cinnamyl-3,4-dihydroxy-α-cyanocynamate (CDC, from Biomol) at a concentration of 10^−8 mol/L in M199 containing 10% LPDS for 30 min. The cocultures were then washed and LDL was added at 250 μg/ml and incubated for 8 hrs."}, "humans": {"test_system": "humans", "test": "Infusion of apo A-I into humans, LDL isolated and tested on human artery wall cocultures", "type": "in vivo"}}}
{"substance": "apo A-I: Human apo A-I from Sigma, major apolipoprotein of HDL; infused into humans as apo A-I/phosphatidylcholine discs", "values": [{"measurement": "LDL-induced monocyte chemotaxis in pretreated cocultures", "setting": "[1]; cocultures incubated 8 hrs with agent, agent removed before LDL", "result": "monocyte chemotaxis was prevented"}, {"measurement": "LDL-induced monocyte chemotactic activity of LDL pre-incubated with the agent", "setting": "[1]; human LDL incubated with agent, re-isolated, then cocultures", "result": "prevented LDL-induced monocyte chemotaxis"}, {"measurement": "oxidation by artery wall cells of mouse LDL after apo A-I treatment", "setting": "[2]; LDL from C57BL/6 and C3H/HeJ mice on chow, incubated in vitro with human apo A-I 100 μg/ml", "result": "rendered resistant to oxidation"}, {"measurement": "protection of LDL against oxidation on co-incubation", "setting": "[2]; apo A-I 50 μg/ml co-incubated with cocultures and LDL 250 μg/ml", "result": "did not protect the LDL against oxidation"}, {"measurement": "ability of pretreated artery wall cocultures to oxidize LDL", "setting": "[2]; cocultures incubated 8 hrs with agent, agent removed before LDL 250 μg/ml", "result": "not able to oxidize the LDL"}, {"measurement": "oxidation by artery wall cells of LDL pre-incubated with the agent", "setting": "[2]; human LDL incubated with agent, re-isolated, then cocultures 8 hrs", "result": "rendered the LDL resistant to oxidation"}, {"measurement": "resistance of human LDL to oxidation by artery wall cells after infusion", "setting": "humans; apo A-I/phosphatidylcholine discs 40 mg apo A-I/kg over 4 hrs, six hours after vs two hours before, six out of six subjects", "result": "much more resistant to oxidation"}, {"measurement": "time after infusion at which LDL was rendered resistant to oxidation", "setting": "humans; humans", "result": "≤ 6", "unit": "h"}]}
